Like-named read-outs stand apart in the source and are kept apart here.
Experiments:
JEG-Tox cells [1] = test: Chromatin condensation (Hoechst 33342) as a hallmark of apoptosis; format: cell-based, human; conditions: 24 h
Experimental: The UV fluorescent probe Hoechst 33342 enters living and apoptotic cells, intercalating into DNA. The fluorescent signal is proportional to chromatin condensation in apoptosis. The cells were incubated with Hoechst 33342 at 10 μg/mL for 30 minutes at room temperature. The fluorescence signal was read (λex=360 nm, λem=460 nm) using a cytofluorometer (Spark).

[2] = Neutral red cell viability of JEG-3 cells with SLS or PFOA in 10% or 2.5% FBS; conditions: human
Experimental: (§1) The choriocarcinoma-derived JEG-3 cell-line (ATCC® HTB-36™, Manassas, VA, USA), was grown as recommended by ATCC: Minimum Essential Medium Eagle's medium supplemented with 10% fetal bovine serum, 2 mM of glutamine, 50 IU/mL of penicillin and 50 IU/mL of streptomycin. Cells were detached using trypsin, counted, and then seeded at 80,000 cells/mL in 96-well microplates (200 μL by well) and Nunc® Lab-Tek® II Chamber Slide™ system for immunostaining.
(§2) Cells were incubated with sodium lauryl sulfate or perfluorooctanoic acid diluted in culture medium supplemented with either 2.5% or 10% FBS. After 24 hours, cell viability was evaluated using the neutral red assay. Neutral Red solution at 0.4% in water was diluted in culture medium with a ratio of 1:79 to give a final concentration of 50 μg/mL. Neutral Red was distributed in the plates for a 3-hour incubation time at 37° C. The cells were then rinsed with PBS to remove any remaining unincorporated dye. The dye was then released from the cells using a lysis solution (1% acetic acid, 50% ethanol and 49% H2O) and the fluorescence was measured (λex=540 nm, λem=600 nm) using Spark microplate fluorometer (Tecan, Mannedorf, Switzerland).

JEG-3 cells = test: as above; conditions: for living cells: 2.5% FBS, 24 h
Experimental: as §1, §2

P2X7 receptor = biological target: T1, P2X7 receptor (Homo sapiens, UniProt Q99572); format: cell-based; conditions: for endocrine disruptor according to the definition of the European Union: JEG-3 cells in 2.5% serum, by measuring the activity of the P2X7 receptor
T1 construct: P2X7 receptor is expressed by human placenta and JEG-Tox; endogenous in cells; host or cells: JEG-3 human trophoblast cell line (ATCC HTB-36) cultured in 2.5% FBS (JEG-Tox)
T1 sequence (Q99572 1-595): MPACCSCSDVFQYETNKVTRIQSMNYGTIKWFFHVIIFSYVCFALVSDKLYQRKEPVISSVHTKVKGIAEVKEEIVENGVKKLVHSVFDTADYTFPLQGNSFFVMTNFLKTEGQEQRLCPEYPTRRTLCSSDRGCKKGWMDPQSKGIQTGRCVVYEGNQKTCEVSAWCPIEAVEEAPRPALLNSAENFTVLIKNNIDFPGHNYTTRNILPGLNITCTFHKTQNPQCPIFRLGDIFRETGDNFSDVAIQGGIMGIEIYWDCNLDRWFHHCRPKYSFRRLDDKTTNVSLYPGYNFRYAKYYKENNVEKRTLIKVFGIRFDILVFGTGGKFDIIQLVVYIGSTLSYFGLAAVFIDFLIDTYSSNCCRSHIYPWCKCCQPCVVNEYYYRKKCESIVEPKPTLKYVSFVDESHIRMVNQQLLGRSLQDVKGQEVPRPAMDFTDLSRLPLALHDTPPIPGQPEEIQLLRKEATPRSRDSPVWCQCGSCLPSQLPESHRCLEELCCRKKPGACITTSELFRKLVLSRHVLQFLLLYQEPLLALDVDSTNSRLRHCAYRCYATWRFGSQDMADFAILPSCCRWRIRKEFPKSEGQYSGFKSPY
Experimental: (§3) P2X7 cell death receptor activation was evaluated using the YO-PRO-1® assay (Rat et al. J Biol Methods. 2017 Jan. 20; 4(1):e64). YO-PRO-1® probe only enters into cells after P2X7 receptor activation-induced pore opening, and binds to DNA, emitting fluorescence. A 1 mM YO-PRO-1 stock solution was diluted at 1/500 in PBS just before use and distributed into the wells of the microplate. After a 10-minute incubation time at room temperature, fluorescence signal was read (λex=491 nm, λem=509 nm) with a Spark cytofluorometer.
as §3, with “al., 2017).” for “al. J Biol Methods. 2017 Jan. 20; 4(1):e64).”, “(λex=485” for “(λex=491”, “λem=531” for “λem=509”

caspase-9 = test: Caspase 9 activity, Caspase-Glo 9 Assay; format: cell-based, human; conditions: 72 h
Experimental: Caspase 9 activity was evaluated using the Caspase-Glo® 9 Assay kit. The assay was performed according to the manufacturer's instructions. Luminescence was quantified with a Spark microplate reader.

caspase-1 = test: Caspase 1 activity, Caspase-Glo 1 Inflammasome Assay; format: cell-based, human; conditions: 72 h
Experimental: Caspase 1 activity was evaluated using the Caspase-Glo® 1 1 Inflammasome Assay kit. The assay was performed according to the manufacturer's instructions. Luminescence was quantified with a Spark microplate reader.
Caspase 1 activity was evaluated using the Caspase-Glo®1 Inflammasome Assay kit. The assay was performed according to the manufacturer's instructions. Luminescence was quantified with a Spark microplate reader.

JEG-Tox cells [3] = test: Neutral Red cell viability assay on JEG-Tox cells, 72 h; format: cell-based, human; conditions: 72 h
Experimental: (§4) The JEG-3 human trophoblast cell line, derived from a human placental carcinoma, was obtained from the American Type Culture Collection (ATCC HTB-36). Cells were cultured in minimum Essential medium, supplemented with 10% fetal bovine serum (FBS), 1% L-glutamine, 0.5% penicillin and streptomycinin, in 75 cm2 polystyrene flasks. Cell cultures were maintained in a cell culture incubator (37° C., saturated humidity, 5% CO2). When the JEG-3 cells reached subconfluency, they were detached using trypsin-EDTA and counted. The cellular suspension was diluted and seeded either in 96-well microplates at a cellular density of 80,000 cells/mL or in 6-well microplates at 120,000 cells/mL, then kept at 37° C. for 24 h. The cells were incubated with EDCs according to example 1.
(§5) Cell viability was evaluated using the Neutral Red assay. The Neutral Red solution at 0.4% (m/v in water) was diluted in cell culture medium to obtain a working concentration of 50 μg/mL. […] The cells were then rinsed with PBS and lysed with a solution of acetic acid-ethanol (ethanol 50.6%, water 48.4% and acetic acid 1%). After homogenization, the fluorescence signal was scanned (λexc=540 nm, λem=600 nm) with a Tecan Spark microplate reader (Mannedorf, Switzerland). The cell viability was calculated compared to the control cells (the fluorescence of the control cells as 100% viability).

[4] = as above; format: cell-based, human; conditions: human, 100 μM, 72 h, read-out: cell viability
Experimental: as §4, §5

JEG-Tox cells [5] = test: Reactive Oxygen Species (ROS) production, H2DCF-DA assay; format: cell-based, human; conditions: 48 h
Experimental: Intracellular ROS were measured using 2′,7′-dichlorodihydro-fluorescein diacetate (H2DCF-DA, Life Technologies), which is hydrolyzed by cell esterases in 2′,7′-dichlorodihydrofluorescein and oxidized by ROS in highly fluorescent 2′,7′-dichlorofluorescein. A 10 μM solution of H2DCF-DA was distributed into wells. After a 20-min incubation period at 37° C., the fluorescence signal was read (λex=485 nm, λem=535 nm) using a Spark microplate reader.

## O=C(O)C(F)(F)C(F)(F)C(F)(F)C(F)(F)C(F)(F)C(F)(F)C(F)(F)F [PFOA, perfluorooctanoic acid]
JEG-Tox cells [1]
  concentration at which chromatin condensation was initiated: 20 µg/mL
[2]
  viability at 24 h, 120 μg/mL: 85%
JEG-3 cells; 80 μg/mL
  living cells: 68%
JEG-3 cells; 120 μg/mL
  living cells: 27%
JEG-3 cells; diluted in 2.5% FBS
  concentration at which cytotoxicity was revealed: 200 µM
JEG-3 cells; diluted in 10% FBS
  concentration at which only a slight loss of cell viability was observed: 300 µM

## CC(C)(c1ccc(O)cc1)c1ccc(O)cc1 [bisphenol A, Bisphenol A]
P2X7 receptor; 20 μM, 72 h
  P2X7 receptor activation compared to control: 1.21 fold change
P2X7 receptor; 25 μM, 72 h
  P2X7 receptor activation compared to control: 1.26 fold change
P2X7 receptor; 50 μM, 72 h
  P2X7 receptor activation compared to control: 1.34 fold change
P2X7 receptor
  endocrine disruptor according to the definition of the European Union: is an endocrine disruptor
P2X7 receptor; JEG-Tox, 72 h
  P2X7 receptor activation (in words): triggered P2X7 receptor activation
P2X7 receptor; Table 4 summary, 72 h
  P2X7 activation (concentration): 5 to 20 µM
caspase-9; 50 μM (highest concentration)
  caspase-9 activity compared to control: 1.28 fold change
caspase-1; 50 μM
  caspase-1 activity compared to control: 1.57 fold change
caspase-1
  effect on caspase-1 activity: activated caspase-1
caspase-1; Table 4 summary
  Casp-1 activation (concentration): 20 µM
caspase-1; highest concentration tested
  caspase-1 activity compared to control: 1.64 fold change
JEG-Tox cells [3]
  concentration up to which no loss of cell viability was observed: up to 20 μM
JEG-Tox cells [3]; Table 4 summary, loss of viability >= 30% counted as cytotoxic
  cytotoxicity (concentration): No
[4]; JEG-Tox cells
  viability at 72 h, 100 µM: 18%
JEG-Tox cells [5]
  effect on ROS production: no effect

## Oc1ccc(Cc2ccc(O)cc2)cc1 [bisphenol F, Bisphenol F]
JEG-Tox cells [1]
  concentration at which chromatin condensation was initiated: 5 µg/mL
P2X7 receptor; 25 μM, 72 h
  P2X7 receptor activation compared to control: 1.24 fold change
P2X7 receptor; 50 μM, 72 h
  P2X7 receptor activation compared to control: 1.46 fold change
P2X7 receptor
  endocrine disruptor according to the definition of the European Union: corresponds also to an endocrine disruptor
caspase-9; 25 μM
  caspase-9 activity compared to control: 1.47 fold change
caspase-9; 50 μM (highest concentration)
  caspase-9 activity compared to control: 1.67 fold change
caspase-1; 25 μM
  caspase-1 activity compared to control: 1.60 fold change
caspase-1; 50 μM
  caspase-1 activity compared to control: 2.61 fold change
[4]
  viability at 72 h, 100 µM: 64%
JEG-Tox cells [5]; 25 μM
  ROS production compared to control: 2.5 fold change
JEG-Tox cells [5]; 50 μM
  ROS production compared to control: 2.5 fold change
